Activity calls are given as the source filed them. The calls are words filed in the database; no cut-off is given here.
Assays:
[1] = test system: Staphylococcus aureus; experiment: Potentiation of oxacillin-mediated antibacterial activity against methicillin-resistant Staphylococcus aureus R49 clinical isolate at 16 ug/ml after 20 to 24 hrs by CLSI method; type: functional
[2] = test system: Staphylococcus aureus; experiment: Potentiation of oxacillin-mediated antibacterial activity against methicillin-resistant Staphylococcus aureus ATCC 43300 assessed as decrease in oxacillin MIC at 32 ug/ml after 20 to 24 hrs by CLSI method relative to control; type: functional
[3] = test system: HEK293; experiment: Cytotoxicity against HEK293 cells assessed as cell viability at 8 to 128 ug/ml by MTS assay; type: cell-based; settings: human
[4] = test system: Staphylococcus aureus; experiment: Potentiation of cephamandole-mediated antibacterial activity against methicillin-resistant Staphylococcus aureus ATCC 43300 assessed as decrease in cephamandole MIC at 32 ug/ml by checkerboard method relative to control; type: functional
[5] = test system: Staphylococcus aureus; experiment: Potentiation of cephalothin-mediated antibacterial activity against methicillin-resistant Staphylococcus aureus ATCC 43300 assessed as decrease in cephalothin MIC at 32 ug/ml by checkerboard method relative to control; type: functional
[6] = test system: Staphylococcus aureus; experiment: Potentiation of carbenicillin-mediated antibacterial activity against methicillin-resistant Staphylococcus aureus ATCC 43300 assessed as decrease in carbenicillin MIC at 32 ug/ml by checkerboard method relative to control; type: functional
[7] = test system: Staphylococcus aureus; experiment: Potentiation of oxacillin-mediated antibacterial activity against methicillin-resistant Staphylococcus aureus R50 clinical isolate at 16 ug/ml after 20 to 24 hrs by CLSI method; type: functional
[8] = test system: Staphylococcus aureus; experiment: Potentiation of cefotaxime mediated antibacterial activity against methicillin-resistant Staphylococcus aureus ATCC 43300 assessed as decrease in cefotaxime MIC at 32 ug/ml by checkerboard method relative to control; type: functional
[9] = test system: Staphylococcus aureus; experiment: Potentiation of oxacillin-mediated antibacterial activity against methicillin-resistant Staphylococcus aureus R313 clinical isolate at 32 ug/ml after 20 to 24 hrs by CLSI method; type: functional
[10] = test system: Staphylococcus aureus; experiment: Cellular uptake in methicillin-resistant Staphylococcus aureus ATCC 43300 by HPLC analysis in presence of oxacillin; type: ADME, organism-based; settings: in vivo
[11] = test system: Staphylococcus aureus; experiment: Potentiation of oxacillin-mediated antibacterial activity against methicillin-resistant Staphylococcus aureus R313 clinical isolate assessed as decrease in oxacillin MIC at 32 ug/ml after 20 to 24 hrs by CLSI method relative to control; type: functional
[12] = test system: Staphylococcus aureus; experiment: Potentiation of cefoperazone mediated antibacterial activity against methicillin-resistant Staphylococcus aureus ATCC 43300 assessed as decrease in cefoperazone MIC at 32 ug/ml by checkerboard method relative to control; type: functional
[13] = test system: Staphylococcus aureus; experiment: Potentiation of cefotiam-mediated antibacterial activity against methicillin-resistant Staphylococcus aureus ATCC 43300 assessed as decrease in cefotiam MIC at 32 ug/ml by checkerboard method relative to control; type: functional
[14] = test system: Staphylococcus aureus; experiment: Potentiation of oxacillin-mediated antibacterial activity against methicillin-resistant Staphylococcus aureus R36 clinical isolate assessed as decrease in oxacillin MIC at 32 ug/ml after 20 to 24 hrs by CLSI method relative to control; type: functional
[15] = test system: Staphylococcus aureus; experiment: Potentiation of oxacillin-mediated antibacterial activity against methicillin-resistant Staphylococcus aureus ATCC 43300 at 32 ug/ml after 20 to 24 hrs by CLSI method; type: functional
[16] = test system: Staphylococcus aureus; experiment: Potentiation of penicillin-mediated antibacterial activity against methicillin-resistant Staphylococcus aureus ATCC 43300 assessed as decrease in penicillin MIC at 32 ug/ml by checkerboard method relative to control; type: functional
[17] = test system: Staphylococcus aureus; experiment: Potentiation of oxacillin-mediated antibacterial activity against methicillin-resistant Staphylococcus aureus R306 clinical isolate assessed as decrease in oxacillin MIC at 32 ug/ml after 20 to 24 hrs by CLSI method relative to control; type: functional
[18] = test system: Staphylococcus aureus; experiment: Downregulation of mecA mRNA expression in methicillin-resistant Staphylococcus aureus ATCC 43300 at 32 ug/ml after 4 hrs by RT-PCR analysis in presence of oxacillin; type: functional, organism-based
[19] = test system: Staphylococcus aureus; experiment: Potentiation of cefepime mediated antibacterial activity against methicillin-resistant Staphylococcus aureus ATCC 43300 assessed as decrease in cefepime MIC at 32 ug/ml by checkerboard method relative to control; type: functional
[20] = test system: Staphylococcus aureus; experiment: Potentiation of oxacillin-mediated antibacterial activity against methicillin-resistant Staphylococcus aureus R16 clinical isolate assessed as decrease in oxacillin MIC at 32 ug/ml after 20 to 24 hrs by CLSI method relative to control; type: functional
[21] = test system: Staphylococcus aureus; experiment: Potentiation of oxacillin-mediated antibacterial activity against methicillin-resistant Staphylococcus aureus R36 clinical isolate at 32 ug/ml after 20 to 24 hrs by CLSI method; type: functional
[22] = test system: Staphylococcus aureus; experiment: Potentiation of cephalexin-mediated antibacterial activity against methicillin-resistant Staphylococcus aureus ATCC 43300 assessed as decrease in cephalexin MIC at 32 ug/ml by checkerboard method relative to control; type: functional
[23] = test system: Staphylococcus aureus; experiment: Potentiation of cefaclor-mediated antibacterial activity against methicillin-resistant Staphylococcus aureus ATCC 43300 assessed as decrease in cefaclor MIC at 32 ug/ml by checkerboard method relative to control; type: functional
[24] = test system: Staphylococcus aureus; experiment: Potentiation of cephazolin-mediated antibacterial activity against methicillin-resistant Staphylococcus aureus ATCC 43300 assessed as decrease in cephazolin MIC at 32 ug/ml by checkerboard method relative to control; type: functional
[25] = test system: Staphylococcus aureus; experiment: Potentiation of oxacillin-mediated antibacterial activity against methicillin-resistant Staphylococcus aureus R53 clinical isolate assessed as decrease in oxacillin MIC at 16 ug/ml after 20 to 24 hrs by CLSI method relative to control; type: functional
[26] = test system: Staphylococcus aureus; experiment: Potentiation of oxacillin-mediated antibacterial activity against methicillin-resistant Staphylococcus aureus R304 clinical isolate assessed as decrease in oxacillin MIC at 32 ug/ml after 20 to 24 hrs by CLSI method relative to control; type: functional
[27] = test system: Staphylococcus aureus; experiment: Potentiation of ceftazidime mediated antibacterial activity against methicillin-resistant Staphylococcus aureus ATCC 43300 assessed as decrease in ceftazidime MIC at 32 ug/ml by checkerboard method relative to control; type: functional
[28] = test system: Staphylococcus aureus; experiment: Potentiation of oxacillin-mediated antibacterial activity against methicillin-resistant Staphylococcus aureus ATCC 43300 assessed as appearance of rougher bacterial surface at 32 ug/ml after 4 hrs by scanning electron microscopic analysis; type: functional, organism-based
[29] = test system: Staphylococcus aureus; experiment: Potentiation of oxacillin-mediated antibacterial activity against methicillin-resistant Staphylococcus aureus R306 clinical isolate at 32 ug/ml after 20 to 24 hrs by CLSI method; type: functional
[30] = test system: Staphylococcus aureus; experiment: Potentiation of cefmetazole-mediated antibacterial activity against methicillin-resistant Staphylococcus aureus ATCC 43300 assessed as decrease in cefmetazole MIC at 32 ug/ml by checkerboard method relative to control; type: functional
[31] = test system: Staphylococcus aureus; experiment: Potentiation of oxacillin-mediated antibacterial activity against methicillin-resistant Staphylococcus aureus R15 clinical isolate assessed as decrease in oxacillin MIC at 32 ug/ml after 20 to 24 hrs by CLSI method relative to control; type: functional
[32] = test system: Staphylococcus aureus; experiment: Potentiation of oxacillin-mediated antibacterial activity against methicillin-resistant Staphylococcus aureus R15 clinical isolate at 32 ug/ml after 20 to 24 hrs by CLSI method; type: functional
[33] = test system: Staphylococcus aureus; experiment: Potentiation of oxacillin-mediated antibacterial activity against methicillin-resistant Staphylococcus aureus ATCC 43300 assessed as growth inhibition at 32 ug/ml after 24 hrs by epsilometer test; type: functional, organism-based

## CCCCCCCCCCCCOCc1cn([C@@H]2O[C@H](CO)[C@@H](O)[C@H](O)[C@H]2O)nn1
[1]
  MIC: < 1 µg/mL
[2]
  fold change (FC): 128
[3]
  Activity: Non-toxic
[4]
  fold change (FC): <=256
[5]
  fold change (FC): <=256
[6]
  fold change (FC): <=256
[7]
  MIC: < 1 µg/mL
[8]
  fold change (FC): <=256
[9]
  MIC: 8 µg/mL
[10]
  Drug uptake: Active
[11]
  MIC: 1 µg/mL
[12]
  fold change (FC): <=256
[13]
  fold change (FC): <=256
[14]
  MIC: 8 µg/mL
[15]
  MIC: 1 µg/mL
[16]
  fold change (FC): <=256
[17]
  MIC: 16 µg/mL
[18]
  Activity: Active
[19]
  fold change (FC): <=256
[20]
  MIC: 4 µg/mL
[21]
  MIC: 8 µg/mL
[22]
  fold change (FC): <=256
[23]
  fold change (FC): <=256
[24]
  fold change (FC): <=256
[25]
  MIC: 8 µg/mL
[26]
  MIC: 2 µg/mL
[27]
  fold change (FC): <=256
[28]
  Activity: Active
[29]
  MIC: 32 µg/mL
[30]
  fold change (FC): <=256
[31]
  MIC: 2 µg/mL
[32]
  MIC: 64 µg/mL
[33]
  growth inhibition (GI): Active
